Assay: Sensory evaluation of coolant mixtures by a panel of 5 trained testers (cooling effect and flavor profile) in a standard chewy candy preparation
Format: in vivo
Settings: panel score (5)=very true to (0)=largely not true; mean values of 5 trained testers; unsweetened, non-aromatized standard chewy candy preparation
Protocol: The cooling effect and flavor profile of various coolant mixtures were evaluated by a panel consisting of 5 trained testers. For this purpose, the mixtures were incorporated into an unsweetened and non-aromatized standard chewy candy preparation. The evaluation was reported according to the notation (5)=very true to (0)=largely not true. Data are mean values.

For `CC(C)C=O` [C1, Isobutyraldehyde], the “Cooling effect is strong” value was 3.2 and the “Cooling effect occurs rapidly” value was 2.1.

For `CC(C)CC=O` [C2, Isovaleraldehyde], the “Cooling effect is strong” value was 3.1 and the “Cooling effect occurs rapidly” value was 2.0.

For `CC(C)C(=O)O` [C3, Isobutyric acid], the “Cooling effect is strong” value was 3.0 and the “Cooling effect occurs rapidly” value was 2.2.

In the case of `CC(C)CC(=O)O` [C4, Isovaleric acid], the “Cooling effect is strong” value is reported as 3.1 and the “Cooling effect occurs rapidly” value is reported as 2.5.

Source: patent US10933039B2, “Coolant mixtures” (Symrise AG, priority 2016, dated 2021)
